The target in one assay is mTOR (Homo sapiens, UniProt P42345). As to the kind of experiment: Kinase-Glo Luminescent Kinase Assay, mTOR. The class given is biochemical. To be noted: average of two separate determinations. (In general: In Kinase-Glo more light means more ATP remaining.)
Another assay addresses PI3Kα (Homo sapiens, UniProt P42336). As to the kind of experiment: Kinase-Glo Luminescent Kinase Assay, PI3Kα. To be noted: average of two separate determinations. The class given is biochemical. The protocol: The experiment was conducted according to the method reported by our research group.[17]
Assay [1] has as its system A549 cancer cell lines. Kind of assay: MTT antiproliferative assay, A549. The class given is cell-based, human. On the technique in general: Tetrazolium dyes change colour on reduction, which living cells bring about.
Assay [2] has as its system A549 cancer cell lines. As to the kind of experiment: Acridine orange (AO) single staining. To be noted: A549, fluorescence microscopy, Fig. 4. Format: cell-based, human. On the procedure: In order to investigate whether the target compound 13f could induce the apoptosis of A549 cancer cell lines, acridine orange (AO) staining assay was carried out. […] But in the test group (Fig. 4b), the cell shape was abnormal with cell shrinkage, chromatin condensation after compound 13f acted on the A549 cells.
The cancer cell apoptotic of target compound 13f were evaluated with A549 cancer cell lines by acridine orange single staining. The experiment was conducted according to the method reported by our research group.[18]

A further assay deals with MCF-7 cancer cell lines. Kind of assay: MTT antiproliferative assay, MCF-7. Format: cell-based, human. To be noted: Homo sapiens, MCF7, Table 2, average of two separate determinations.
For the next assay, the system named is HepG2 cancer cell lines. Kind of assay: MTT antiproliferative assay, HepG2. To be noted: Homo sapiens, HepG2, Table 2, average of two separate determinations. Format: cell-based, human.
In the next assay the test system is A549 cells. As to the kind of experiment: Annexin V-FITC/PI double staining by flow cytometry. Format: cell-based, human. For orientation: Flow cytometry measures light scatter and fluorescence of single cells or particles in a stream.

Sequence of PI3Kα (P42336 whole entry): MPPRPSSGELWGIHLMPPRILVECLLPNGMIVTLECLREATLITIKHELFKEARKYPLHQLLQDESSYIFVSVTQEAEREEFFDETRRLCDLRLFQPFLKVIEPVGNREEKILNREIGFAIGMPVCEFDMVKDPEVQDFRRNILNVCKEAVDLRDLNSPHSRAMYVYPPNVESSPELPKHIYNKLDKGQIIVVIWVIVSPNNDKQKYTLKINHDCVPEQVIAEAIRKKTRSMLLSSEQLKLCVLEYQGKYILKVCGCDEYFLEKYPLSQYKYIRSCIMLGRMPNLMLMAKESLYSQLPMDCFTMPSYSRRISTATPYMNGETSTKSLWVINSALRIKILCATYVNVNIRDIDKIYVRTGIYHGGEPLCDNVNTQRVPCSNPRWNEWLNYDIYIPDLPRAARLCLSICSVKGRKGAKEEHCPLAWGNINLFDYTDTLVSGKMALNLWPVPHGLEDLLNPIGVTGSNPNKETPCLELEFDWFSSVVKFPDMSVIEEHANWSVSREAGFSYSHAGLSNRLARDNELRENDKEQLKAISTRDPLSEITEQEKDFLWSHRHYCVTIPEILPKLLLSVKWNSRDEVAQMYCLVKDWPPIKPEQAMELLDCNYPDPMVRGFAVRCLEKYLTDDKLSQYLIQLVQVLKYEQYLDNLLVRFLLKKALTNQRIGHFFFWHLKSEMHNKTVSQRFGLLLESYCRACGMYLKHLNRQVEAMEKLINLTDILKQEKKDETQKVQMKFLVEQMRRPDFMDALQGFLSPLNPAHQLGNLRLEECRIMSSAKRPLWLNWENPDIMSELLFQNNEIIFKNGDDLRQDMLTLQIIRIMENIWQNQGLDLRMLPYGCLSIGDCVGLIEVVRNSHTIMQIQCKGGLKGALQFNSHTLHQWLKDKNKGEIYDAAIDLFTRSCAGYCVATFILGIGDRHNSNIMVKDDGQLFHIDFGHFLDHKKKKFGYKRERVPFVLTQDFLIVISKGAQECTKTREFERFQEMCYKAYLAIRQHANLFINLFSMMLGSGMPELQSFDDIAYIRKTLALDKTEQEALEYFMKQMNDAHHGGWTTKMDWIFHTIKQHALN
Sequence of PI3Kα (P27986 whole entry partner): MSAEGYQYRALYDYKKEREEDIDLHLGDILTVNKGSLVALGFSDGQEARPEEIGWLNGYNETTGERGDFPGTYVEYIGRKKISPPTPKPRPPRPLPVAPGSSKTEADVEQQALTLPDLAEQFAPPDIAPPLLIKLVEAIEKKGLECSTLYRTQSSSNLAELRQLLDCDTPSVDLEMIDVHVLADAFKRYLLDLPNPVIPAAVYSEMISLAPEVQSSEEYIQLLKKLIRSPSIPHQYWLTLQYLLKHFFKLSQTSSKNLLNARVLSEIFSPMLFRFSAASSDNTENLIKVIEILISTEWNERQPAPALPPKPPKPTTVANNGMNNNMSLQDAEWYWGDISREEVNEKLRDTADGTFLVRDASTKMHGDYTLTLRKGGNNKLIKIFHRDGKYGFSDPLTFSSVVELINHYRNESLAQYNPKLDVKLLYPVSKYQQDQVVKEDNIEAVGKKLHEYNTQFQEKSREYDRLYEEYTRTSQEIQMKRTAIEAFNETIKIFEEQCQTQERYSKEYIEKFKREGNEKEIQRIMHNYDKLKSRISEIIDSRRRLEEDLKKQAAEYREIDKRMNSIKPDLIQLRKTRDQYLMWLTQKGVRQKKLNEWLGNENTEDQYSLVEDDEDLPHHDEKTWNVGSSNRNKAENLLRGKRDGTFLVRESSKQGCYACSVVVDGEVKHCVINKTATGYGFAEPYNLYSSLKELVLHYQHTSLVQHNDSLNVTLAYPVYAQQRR

As to `COc1ccc(C2CC(c3ccccc3)=NN2c2nc(N(C)CCN(C)C)c3ccsc3n2)cc1` (stereo not shown) [Compound 13f, N ^1-(2-(5-(4-Methoxyphenyl)-3-phenyl-4,5-dihydro-1H-pyrazol-1-yl)thieno[2,3-d]pyrimidin-4-yl)-N^1,N^2,N^2-trimethylethane-1,2-diamine], the IC50 at mTOR was > 10 µM; at PI3Kα, 0.92 ± 0.14 µM; with A549 cancer cell lines [1] (Homo sapiens, A549, Table 2, average of two separate determinations) it was 2.84 ± 0.09 µM; in the assay with MCF-7 cancer cell lines, 2.88 ± 0.43 µM; in the assay on HepG2 cancer cell lines, 2.08 ± 0.36 µM. The “inhibition of proliferation of A549 cancer cell lines (dose and time dependence)” value in the assay on A549 cancer cell lines [1] (several concentrations and exposure times, Fig. 3) was “dose-dependent and time-dependent”. For the same molecule, in the assay on A549 cancer cell lines [2], the “induction of apoptosis (cell morphology, AO staining)” value was “could induce apoptosis”. Also, the early apoptotic cells in the assay with A549 cells (A549, 1.6 μM, 24 h) turned out to be 9.14%. Moreover, the late apoptotic cells in the assay with A549 cells (A549, 1.6 μM, 24 h) was found to be 7.68%. In addition, in the assay with A549 cells (A549, 0.2-1.6 μM), the “induction of apoptosis (Annexin V-FITC/PI)” value is listed as “induce apoptosis in a concentration-dependent manner”.

Usually IC50 stands for the point on the concentration scale where inhibition reaches its midpoint. A high value points to weaker potency.
